In patent US10562898B2, “Substituted benzenesulfonamides as inhibitors of alpha-4 beta-7 integrin activity” (EA PHARMA CO., LTD., priority 2016, dated 2020):

These molecules were tested against T1, α4β7 integrin (Homo sapiens, UniProt P13612+P26010) (assay: MAdCAM-1/α4β7 integrin binding inhibitory activity evaluation test in presence of serum). Settings: RPMI-8866 cells, recombinant mouse MAdCAM-1/Fc, 50% human serum; read-out: α4β7 Serum Added IC50.
T1 construct: a cell line RPMI-8866, which is known to express α4β7 integrin; endogenous in cells; host or cells: RPMI-8866 (human B cell line)
T1 sequence (P13612 34-1032): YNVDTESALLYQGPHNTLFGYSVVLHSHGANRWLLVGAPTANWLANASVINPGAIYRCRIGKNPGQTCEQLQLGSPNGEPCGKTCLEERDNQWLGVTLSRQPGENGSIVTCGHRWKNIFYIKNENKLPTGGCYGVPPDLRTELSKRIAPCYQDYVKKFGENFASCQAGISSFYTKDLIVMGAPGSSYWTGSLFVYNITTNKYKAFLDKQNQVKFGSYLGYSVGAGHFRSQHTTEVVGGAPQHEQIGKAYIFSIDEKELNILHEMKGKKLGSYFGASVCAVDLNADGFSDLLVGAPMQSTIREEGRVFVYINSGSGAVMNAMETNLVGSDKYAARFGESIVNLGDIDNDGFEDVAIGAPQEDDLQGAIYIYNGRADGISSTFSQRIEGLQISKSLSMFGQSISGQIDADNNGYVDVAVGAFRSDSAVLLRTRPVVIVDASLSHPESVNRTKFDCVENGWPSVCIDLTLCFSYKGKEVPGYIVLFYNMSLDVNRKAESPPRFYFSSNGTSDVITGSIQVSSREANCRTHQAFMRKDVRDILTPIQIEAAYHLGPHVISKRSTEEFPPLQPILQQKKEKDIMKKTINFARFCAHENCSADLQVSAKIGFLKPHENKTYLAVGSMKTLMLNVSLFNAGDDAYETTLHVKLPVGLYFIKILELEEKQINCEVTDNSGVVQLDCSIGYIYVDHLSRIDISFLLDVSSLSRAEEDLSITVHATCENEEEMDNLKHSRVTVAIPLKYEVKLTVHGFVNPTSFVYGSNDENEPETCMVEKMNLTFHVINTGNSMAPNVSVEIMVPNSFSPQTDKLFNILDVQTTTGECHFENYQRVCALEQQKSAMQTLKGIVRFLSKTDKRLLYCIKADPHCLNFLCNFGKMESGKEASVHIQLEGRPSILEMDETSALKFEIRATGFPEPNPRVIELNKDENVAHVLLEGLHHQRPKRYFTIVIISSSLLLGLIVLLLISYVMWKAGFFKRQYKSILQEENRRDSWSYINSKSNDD
T1 sequence (P26010 20-798): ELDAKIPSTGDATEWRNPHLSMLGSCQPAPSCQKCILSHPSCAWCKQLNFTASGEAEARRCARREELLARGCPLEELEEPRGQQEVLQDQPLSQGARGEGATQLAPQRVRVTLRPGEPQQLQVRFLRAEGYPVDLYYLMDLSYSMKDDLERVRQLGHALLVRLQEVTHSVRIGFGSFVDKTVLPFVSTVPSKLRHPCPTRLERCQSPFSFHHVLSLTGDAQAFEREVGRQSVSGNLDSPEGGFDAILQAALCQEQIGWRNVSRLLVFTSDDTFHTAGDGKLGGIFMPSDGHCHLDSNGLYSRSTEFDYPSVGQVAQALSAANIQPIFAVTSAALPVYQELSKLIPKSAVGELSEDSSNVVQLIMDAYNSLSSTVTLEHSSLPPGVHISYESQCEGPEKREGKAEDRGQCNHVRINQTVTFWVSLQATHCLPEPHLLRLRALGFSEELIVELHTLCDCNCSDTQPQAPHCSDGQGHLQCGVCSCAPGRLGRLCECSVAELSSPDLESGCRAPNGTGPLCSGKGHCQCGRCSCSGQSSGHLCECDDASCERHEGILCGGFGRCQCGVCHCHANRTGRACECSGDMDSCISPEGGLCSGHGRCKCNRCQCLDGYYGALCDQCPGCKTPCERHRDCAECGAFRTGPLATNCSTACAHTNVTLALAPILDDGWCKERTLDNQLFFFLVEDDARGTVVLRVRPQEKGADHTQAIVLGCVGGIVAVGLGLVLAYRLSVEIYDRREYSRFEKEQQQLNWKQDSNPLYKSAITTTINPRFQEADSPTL
Type: cell-based
Procedure: (3) MAdCAM-1/α4β7 Integrin Binding Inhibitory Activity Evaluation Test in Presence of Serum (1)
Each test substance was measured in terms of an ability to inhibit the MAdCAM-1 binding of a human B cell line, namely, a cell line RPMI-8866, which is known to express α4β7 integrin.
A solution of recombinant mouse MAdCAM-1/Fc (R&D Systems, Inc.) (1 μg/mL) diluted with a buffer A (carbonate buffer, pH 9.6) was added in an amount of 50 μL/well to a 96-well microtiter plate, followed by incubation at 4° C. overnight. After the plate was washed with PBS once, 150 μL/well of Block Ace (Snow Brand Milk Products Co., Ltd.) was added, followed by incubation at room temperature for 2 hours. After removal, the plate was washed with PBS once.
Then, 100 μL of the RPMI-8866 cells (2×10^6 cells/mL) and 100 of the test substance at each of various concentrations diluted with a binding buffer (DMEM containing 40 mM HEPES, 0.2% BSA, and 4 mM MnCl2) were added to the plate coated with the MAdCAM-1/Fc (5×10^5 cells/well) such that 50% human serum was contained at the final concentration. Then, incubation was allowed to proceed at 30° C. for 15 to 60 minutes. After the cells were bound to the wells, the plate was washed with PBS to remove unbound cells. A buffer C (PBS containing 1.5% Triton X-100) was added in an amount 50 μL/well to the plate to lyse the bound RPMI-8866 cells. After 30 μL of a substrate buffer (Promega, CytoTox 96 Non-Radioactive Cytotoxicity Assay) was added to 30 μL of the cell lysate, a reaction was allowed to proceed at room temperature in the dark for 30 minutes. After 30 μL of a stop solution (Promega, CytoTox 96 Non-Radioactive Cytotoxicity Assay) was added to each, and then an absorbance at 490 nm was measured using a plate reader. The absorbance obtained here represents a detection result of an activity of lactate dehydrogenase (LDH) eluted in the supernatant of each well, that is, the absorbance is proportional to the number of RPMI-8866 cells bound to the MAdCAM-1 and thus remaining on the plate. The test was performed in duplicate. Provided that the absorbance of the well containing no test substance was 100%, a cell binding rate with the test substance at each of the various concentrations was figured out, and a concentration IC50 which brought about 50% binding inhibition was calculated.

Row | Structure (SMILES) | IC50
1 | Cn1c(=O)n(-c2ccc(C[C@H](NC(=O)c3cc(F)c(NS(=O)(=O)c4ccc(NC(=O)C5(C(F)(F)F)CC5)cc4)cc3F)C(=O)O)cc2)c(=O)c2ccncc21 [Compound A24] | 0.015 µM
2 | CCC(CC)C(=O)Nc1ccc(S(=O)(=O)Nc2cc(F)c(C(=O)N[C@@H](Cc3ccc(-n4c(=O)c5ccncc5n(C)c4=O)cc3)C(=O)O)cc2F)cc1 [Compound A3] | 0.01 µM
3 | Cc1cn(C)c(=O)n(-c2ccc(C[C@H](NC(=O)c3cc(F)c(NS(=O)(=O)c4ccc(NC(=O)C(C)C)cc4)cc3F)C(=O)O)cn2)c1=O [Compound A71] | 0.043 µM
4 | Cc1cn(C)c(=O)n(-c2ccc(C[C@H](NC(=O)c3cc(F)c(NS(=O)(=O)c4ccc(NC(=O)C(C)(C)C)cc4)cc3F)C(=O)O)nc2)c1=O [Compound A69] | 0.016 µM
5 | Cn1c2c(c(=O)n(-c3ccc(C[C@H](NC(=O)c4cc(F)c(NS(=O)(=O)c5ccc(NC(=O)C(C)(C)C)cc5)cc4F)C(=O)O)cc3)c1=O)CCOC2 [Compound A27] | 0.0024 µM
6 | Cc1c(C)n(C)c(=O)n(-c2ccc(C[C@H](NC(=O)c3cc(F)c(NS(=O)(=O)c4ccc(NC(=O)C(C)(C)C)cn4)cc3F)C(=O)O)cn2)c1=O [Compound A32] | 0.003 µM
7 | Cc1cc(=O)n(-c2ccc(C[C@H](NC(=O)c3cc(F)c(NS(=O)(=O)c4ccc(NC(=O)C(C)(C)C)cc4)cc3F)C(=O)O)cc2)c(=O)n1C [Compound A46] | 0.0076 µM
8 | Cn1ccc(=O)n(-c2ccc(C[C@H](NC(=O)c3cc(F)c(NS(=O)(=O)c4ccc(NC(=O)C(C)(C)CO)cc4)cc3F)C(=O)O)cn2)c1=O [Compound A62] | 0.022 µM
9 | Cn1c(C(F)(F)F)cc(=O)n(-c2ccc(C[C@H](NC(=O)c3cc(F)c(NS(=O)(=O)c4ccc(NC(=O)C(C)(C)C)cc4)cc3F)C(=O)O)cn2)c1=O [Compound A66] | 0.025 µM
10 | Cc1c(C)n(C)c(=O)n(-c2ccc(C[C@H](NC(=O)c3cc(F)c(NS(=O)(=O)c4ccc(NC(=O)C5(c6ccccc6)CC5)cc4)cc3F)C(=O)O)cc2)c1=O [Compound A30] | 0.043 µM
11 | Cc1c(C)n(C)c(=O)n(-c2ccc(C[C@H](NC(=O)c3cc(F)c(NS(=O)(=O)c4cccc(NC(=O)C(C)(C)C)c4)cc3F)C(=O)O)cc2)c1=O [Compound A49] | 0.045 µM
12 | Cn1cc(C(F)(F)F)c(=O)n(-c2ccc(C[C@H](NC(=O)c3cc(F)c(NS(=O)(=O)c4ccc(NC(=O)C(C)(C)C)cc4)cc3F)C(=O)O)cn2)c1=O [Compound A67] | 0.014 µM
13 | Cn1c2c(c(=O)n(-c3ccc(C[C@H](NC(=O)c4cc(F)c(NS(=O)(=O)c5ccc(NC(=O)C(C)(C)C)cc5)cc4F)C(=O)O)nc3)c1=O)CCCC2 [Compound A47] | 0.015 µM
14 | Cc1cn(C)c(=O)n(-c2ccc(C[C@H](NC(=O)c3cc(F)c(NS(=O)(=O)c4ccc(NC(=O)C(C)(C)C)cc4)cc3F)C(=O)O)cc2)c1=O [Compound A37] | 0.0066 µM
15 | COC1(C(=O)Nc2ccc(S(=O)(=O)Nc3cc(F)c(C(=O)N[C@@H](Cc4ccc(-n5c(=O)c(C)c(C)n(C)c5=O)cc4)C(=O)O)cc3F)cc2)CC1 [Compound A17] | 0.067 µM
16 | Cc1c(C)n(C)c(=O)n(-c2ccc(C[C@H](NC(=O)c3cc(F)c(NS(=O)(=O)c4ccc(NC(=O)C5(O)CC5)cc4)cc3F)C(=O)O)cc2)c1=O [Compound A22] | 0.025 µM
17 | Cn1c(=O)n(-c2ccc(C[C@H](NC(=O)c3cc(F)c(NS(=O)(=O)c4ccc(NC(=O)C(C)(C)C)c(F)c4)cc3F)C(=O)O)cc2)c(=O)c2ccncc21 [Compound A12] | 0.061 µM
18 | Cc1cn(C)c(=O)n(-c2ccc(C[C@H](NC(=O)c3cc(F)c(NS(=O)(=O)c4ccc(NC(=O)C5(C#N)CC5)cc4)cc3F)C(=O)O)cn2)c1=O [Compound A60] | 0.052 µM
19 | CN1CCC(=O)N(c2ccc(C[C@H](NC(=O)c3cc(F)c(NS(=O)(=O)c4ccc(NC(=O)C(C)(C)C)cc4)cc3F)C(=O)O)cn2)C1=O [Compound A75, (2S)-2-[2,5-difluoro-4-[(4-pivalamidophenyl)sulfonamide]benzamido]-3-[6-(3-methyl-2,6-dioxotetrahydropyrimidin-1(2H)-yl)pyridin-3-yl]propanoic acid] | 0.016 µM
20 | Cc1cn(C)c(=O)n(-c2ccc(C[C@H](NC(=O)c3cc(F)c(NS(=O)(=O)c4ccc(NC(=O)C5(C(F)(F)F)CC5)cc4)cc3F)C(=O)O)cn2)c1=O [Compound A56] | 0.019 µM
21 | CCC(CC)C(=O)Nc1ccc(S(=O)(=O)Nc2cc(F)c(C(=O)N[C@@H](Cc3ccc(-n4c(=O)ccn(C)c4=O)nc3)C(=O)O)cc2F)cc1 [Compound A61] | 0.062 µM
